Assay results as given in US8357832B2, “F1B-TMIR plasmid vector and transgenic mouse” (National Health Research Institutes, priority 2009, dated 2013).

Key:
[1] = tested on: TMIR expressing tissues (HSV1Δtk) of F1B-TMIR mice; assay: [131I]FIAU γ-camera imaging of F1B-TMIR transgenic mice; format: in vivo, mouse
Description: FIG. 4. […] Image of young female mice #7, #29 (Right) was shown for comparison.
Carrier-free [^131I] (2′-fluoro-2′-deoxy-1-β-D-arabinofuranosyl-5-iodouracil) ([^131I]FIAU) was synthesized from 5-trimethylstannyl-1-(2′-deoxy-2′-fluoro-1-β-D-arabinofuranosyl)-uracil (FTAU) by an oxidative iododestannylation method as previously described (Deng W P, Yang W K, Lai W F, et al. Non-invasive in vivo imaging with radiolabelled FIAU for monitoring cancer gene therapy using herpes simplex virus type 1 thymidine kinase and ganciclovir. Eur J Nucl Med Mol Imaging. January 2004; 31 (1):99-109). The radiochemical purity of [^131I]FIAU was >95%, as determined by thin layer chromatograph (TLC) method on a silica gel coated aluminum sheet using ethyl acetate-ethanol mixture (90:10, v/v) as the mobile phase. A Siemens E.CAM dual-head γ-camera, equipped with custom-made 1 mm pinhole collimator, was used for the animal γ-imaging. To block the thyroid uptake of radioiodine, mice were injected with sodium iodine saline (0.9% sodium iodine in normal saline, 1 ml/animal) 15 min prior to the intraperitoneal injection of 11.1 MBq [^131I] FIAU. The animal was laid in the prone position and 4 cm distant from the pinhole center to provide a full coverage of the body. […] The image was scanned one week after injection of probe to ensure adequate clearance of unwanted background radioactivity. […]

[2] = tested on: MDA-MB231 cells that constitutively express large amount of eGFP-tk; conditions: cited from earlier work
[3] = tested on: CMV-TMIR transfected CHO cells; assay: Luciferase activity assay after GCV treatment (sensitivity to GCV, functioning HSV1Δtk); format: cell-based, Chinese hamster; conditions: low or high concentration of GCV (0.005 or 0.1 μg/ml), 72 h, normalized to β-gal
[4] = tested on: F1B-TMIR transfected CHO cells; assay: as above; format: cell-based, Chinese hamster; conditions: low or high concentration of GCV (0.005 or 0.1 μg/ml), 72 h, normalized to β-gal
Experimental: FIG. 1. (A) Structure of the F1B-TMIR transgenic vector. The restriction sites mentioned in the construction method are shown. (B) Fluorescent pictures of CHO cells transiently transfected by F1B-TMIR vector. Scale bar=100 μm. (C) The luciferase activity in F1B-TMIR transfected CHO cells following the incubation with GCV. The data shown were the luciferase activity normalized to the β-gal activity from a co-transfected RSV-β-gal vector. Error bars represent mean+SEM, n=3, *P<0.05, compared to the untreated group.
Chinese hamster ovary […] (CHO-K1) were maintained in F-12 medium supplemented with 10% fetal bovine serum (FBS) and the antibiotics penicillin, streptomycin, and amophotericin B (PSA) in a 95% air and 5% CO2 humidified incubator. DNA vectors including a RSV β-galactosidase control vector for normalization of transfection efficiency were transfected into the cells using PolyFect (Qiagen) reagent by following manufacturer's protocol. […]
The TMIR vectors driven by CMV or F1B promoter were constructed as foregoing description. […] There was a decrease in the number of cells expressing GFP and in the intensity of fluorescence in F1B-TMIR transfected cells than cells transfected by CMV-TMIR (FIG. 1B) as a result of weaker transactivity by FIB promoter. […]

[5] = tested on: ZR75-1 cells that constitutively express low amount of eGFP-tk; conditions: cited from earlier work

| SMILES | uptake at head (γ imaging) ([1]; F1B-TMIR mice #2, #7, #29, one week after probe injection) | uptake in testis (γ imaging) ([1]; male F1B-TMIR mice, one week after intraperitoneal injection of 11.1 MBq probe, absent in female mice) | ED50 (the dose resulted in 50% of cell death after 7 days) [2] [ng/mL] | loss of luciferase activity [3] [%] | loss of luciferase activity [4] [%] | ED50 (the dose resulted in 50% of cell death after 7 days) [5] |
| --- | --- | --- | --- | --- | --- | --- |
| O=c1[nH]c(=O)n([C@@H]2O[C@H](CO)[C@@H](O)[C@@H]2F)cc1[131I] [[^131I]FIAU, [^131I] (2′-fluoro-2′-deoxy-1-β-D-arabinofuranosyl-5-iodouracil)] | low uptake | strong uptake | – | – | – | – |
| Nc1nc(O)c2ncn(COC(CO)CO)c2n1 [GCV, Ganciclovir] | – | – | 5 | 45 | 35 | around 0.1 μg/ml |
